18 compounds from ChEMBL document CHEMBL4304773, “Nitroimidazole-containing compounds and their antibacterial and antitubercular activities” (2019) can be followed below.

Values after ≈ are worked out from the molar mass of the structure shown.

Test [1] relates to Staphylococcus aureus. Kind of test: Antibacterial activity against methicillin-resistant Staphylococcus aureus N315. Type of test: functional.
The test system of test [2] is Klebsiella aerogenes. Kind of test: Antibacterial activity against Klebsiella aerogenes. Type of test: functional.
Test [3] deals with Staphylococcus aureus. In words: Antibacterial activity against Staphylococcus aureus ATCC 29213. Type of test: functional.
Test [4] concerns Pseudomonas aeruginosa. Kind of test: Antibacterial activity against Pseudomonas aeruginosa ATCC 27853. Type of test: functional.
Test [5] has as its system Pseudomonas aeruginosa. Kind of test: Antibacterial activity against Pseudomonas aeruginosa. Type of test: functional.
For test [6], the system named is Escherichia coli. In words: Antibacterial activity against Escherichia coli. It is filed as functional.
The subject of test [7] is Escherichia coli. In words: Antibacterial activity against Escherichia coli ATCC 25922. Type of test: functional.
A further test deals with Enterococcus faecalis. In words: Antibacterial activity against Enterococcus faecalis. Type of test: functional.
For another test, the system named is Acinetobacter baumannii. Kind of test: Antibacterial activity against Acinetobacter baumannii. Type of test: functional.
In test [8] the test system is Klebsiella pneumoniae. In words: Antibacterial activity against Klebsiella pneumoniae. Type of test: functional.
Test [9] deals with Staphylococcus aureus. In words: Antibacterial activity against Staphylococcus aureus ATCC 25923. Type of test: functional.
Test [10] has as its system Bacillus subtilis. In words: Antibacterial activity against Bacillus subtilis PTCC 1023 after 18 hrs by two fold serial dilution. The note with it: PTCC 1023, 18 h. Type of test: functional.
For test [11], the system named is Staphylococcus epidermidis. In words: Antibacterial activity against Staphylococcus epidermidis ATCC 12228 after 18 hrs by two fold serial dilution. The note with it: ATCC 12228, 18 h. Type of test: functional.
Test [12] has as its system Klebsiella pneumoniae. Kind of test: Antibacterial activity against Klebsiella pneumoniae ATCC 10031 after 18 hrs by two fold serial dilution. Type of test: functional. Particulars: ATCC 10031, 18 h.
The test system of test [13] is Escherichia coli. In words: Antibacterial activity against Escherichia coli ATCC 8739 after 18 hrs by two fold serial dilution. Particulars: ATCC 8739, 18 h. Type of test: functional.
Test [14] relates to Staphylococcus aureus. Kind of test: Antibacterial activity against Staphylococcus aureus ATCC 6538 after 18 hrs by two fold serial dilution. Type of test: functional. Particulars: ATCC 6538, 18 h.
Test [15] relates to Staphylococcus aureus. Kind of test: Antibacterial activity against Staphylococcus aureus. It is filed as functional.
In a further test the test system is Streptococcus pyogenes. Kind of test: Antibacterial activity against Streptococcus pyogenes. Type of test: functional.
The subject of a further test is Proteus vulgaris. In words: Antibacterial activity against Proteus vulgaris. Type of test: functional.
The test system of a further test is Salmonella typhimurium. In words: Antibacterial activity against Salmonella typhimurium. It is filed as functional, Salmonella enterica subsp. enterica serovar Typhimurium. Particulars: Salmonella enterica.
Test [16] relates to Staphylococcus epidermidis. In words: Antibacterial activity against Staphylococcus epidermidis. Type of test: functional.
The test system of another test is Candida albicans. In words: Antifungal activity against Candida albicans. It is filed as functional.
Test [17] concerns Klebsiella aerogenes. In words: Antibacterial activity against Enterobacter aerogenes PTCC 1221 after 18 hrs by two fold serial dilution. It is filed as functional. Particulars: PTCC 1221, 18 h.
For test [18], the system named is Pseudomonas aeruginosa. Kind of test: Antibacterial activity against Pseudomonas aeruginosa ATCC 27853 after 24 hrs by NCCLS method. Type of test: functional. Particulars: ATCC 27853, 24 h.
Test [19] relates to Staphylococcus aureus. Kind of test: Antibacterial activity against Staphylococcus aureus ATCC 25923 after 24 hrs by NCCLS method. It is filed as functional. The note with it: ATCC 25923, 24 h.
Test [20] has as its system Escherichia coli. Kind of test: Antibacterial activity against Escherichia coli ATCC 25922 after 24 hrs by NCCLS method. It is filed as functional. The note with it: ATCC 25922, 24 h.
Test [21] has as its system Bacillus subtilis. Kind of test: Antibacterial activity against Bacillus subtilis ATCC 530 after 24 hrs by NCCLS method. It is filed as functional. The note with it: ATCC 530, 24 h.
In test [22] the test system is Helicobacter pylori. In words: Antibacterial activity against Helicobacter pylori. It is filed as functional.
Test [23] has as its system Helicobacter pylori. In words: Antibacterial activity against Helicobacter pylori NCTC 11637. It is filed as functional.
Test [24] relates to Helicobacter pylori. Kind of test: Antibacterial activity against metronidazole-resistant Helicobacter pylori clinical isolates. Type of test: functional.
Test [25] has as its system Helicobacter pylori. Kind of test: Antibacterial activity against Helicobacter pylori clinical isolate assessed as zone of inhibition at 8 ug/disc. Type of test: functional. Particulars: read-out: IZ.
Test [26] has as its system Helicobacter pylori. In words: Antibacterial activity against drug-sensitive Helicobacter pylori assessed as zone of inhibition at 8 ug/disc. Type of test: functional. The note with it: read-out: IZ.

In the case of `CCCCCCCCCCN1CCN(c2ccc3c4c(cccc24)C(=O)N(CC(O)Cn2c([N+](=O)[O-])cnc2C)C3=O)CC1` (configuration not stated), the MIC was 13 to 210 µM (≈ 7.86 to 127 µg/mL) against Staphylococcus aureus [1]; 13 µM in the test on Klebsiella aerogenes [2]; 13 to 210 µM (≈ 7.86 to 127 µg/mL) against Staphylococcus aureus [3]; 13 to 210 µM (≈ 7.86 to 127 µg/mL) in the test with Pseudomonas aeruginosa [4]; 13 to 210 µM in the test on Pseudomonas aeruginosa [5]; 13 to 210 µM against Escherichia coli [6]. The MIC lay within 13 to 210 µM (≈ 7.86 to 127 µg/mL) against Escherichia coli [7]; 13 to 210 µM with Enterococcus faecalis; 13 to 210 µM (≈ 7.86 to 127 µg/mL) with Acinetobacter baumannii; 13 to 210 µM (≈ 7.86 to 127 µg/mL) with Klebsiella pneumoniae [8]; 13 to 210 µM (≈ 7.86 to 127 µg/mL) against Staphylococcus aureus [9].

Turning to `Cn1cnc([N+](=O)[O-])c1S(=O)(=O)c1nnc(-c2ccc([N+](=O)[O-])o2)s1`, the MIC (in the test with Bacillus subtilis [10]; in test [11]; with Klebsiella pneumoniae [12]; against Escherichia coli [13]; in the test with Staphylococcus aureus [14]) was 2 to 64 µg/mL (≈ 5.18 to 166 µM) each time.

In the case of `Cc1nc([N+](=O)[O-])cn1Cc1nn(CNc2ccc(-c3ccccc3)cc2)c(=S)o1`, the results for the MIC in the test with Staphylococcus aureus [15] and with Streptococcus pyogenes were 184 to 2890 µM and 184 to 2890 µM (≈ 77.7 to 1220 µg/mL), respectively.

Take `O=C(N[C@H](CO)[C@H](O)c1ccc([N+](=O)[O-])cc1)C(Cl)Cl` [CHLORAMPHENICOL]: the MIC in the test on Proteus vulgaris is 7.8 to 250 µg/mL (≈ 24.1 to 774 µM); in the test on Salmonella typhimurium, 7.8 to 250 µg/mL (≈ 24.1 to 774 µM); against Klebsiella aerogenes [2], 7.8 to 250 µg/mL; in the test on Pseudomonas aeruginosa [5] it was 7.8 to 250 µg/mL; against Staphylococcus aureus [15], 7.8 to 250 µg/mL; in test [16], 7.8 to 250 µg/mL (≈ 24.1 to 774 µM). The figures for the MIC in the test with Escherichia coli [6], against Candida albicans and against Enterococcus faecalis were 7.8 to 250 µg/mL, 7.8 to 250 µg/mL (≈ 24.1 to 774 µM) and 7.8 to 250 µg/mL, respectively.

Consider `CCc1ccc(NCn2nc(Cn3cc([N+](=O)[O-])nc3C)oc2=S)cc1`, for which the figures for the MIC in the test on Staphylococcus aureus [15] and in the test on Streptococcus pyogenes were 184 to 2890 µM and 184 to 2890 µM (≈ 68.9 to 1080 µg/mL), respectively.

`Cn1cnc([N+](=O)[O-])c1Sc1nnc(-c2ccc([N+](=O)[O-])o2)s1`: the MIC against Bacillus subtilis [10] was above 64 µg/mL; against Klebsiella pneumoniae [12] it was above 64 µg/mL; in the test on Escherichia coli [13] it was above 64 µg/mL; against Klebsiella aerogenes [17], above 64 µg/mL; against Staphylococcus aureus [14], 4 to 32 µg/mL (≈ 11.3 to 90.3 µM).

As to `NC[C@H]1O[C@H](O[C@H]2[C@H](O)[C@@H](O[C@H]3O[C@H](CO)[C@@H](O)[C@H](N)[C@H]3O)[C@H](N)C[C@@H]2N)[C@H](N)[C@@H](O)[C@@H]1O` [BEKANAMYCIN], the MIC against Pseudomonas aeruginosa [18], against Staphylococcus aureus [19], in the test with Escherichia coli [20] and against Bacillus subtilis [21] was 1.56 to 3.12 µg/mL (≈ 3.23 to 6.45 µM) each time.

Consider `Cc1ncc([N+](=O)[O-])n1CCNCc1nonc1C(N)=O`, for which the MIC90 with Helicobacter pylori [22] and in the test with Helicobacter pylori [23] was 0.5 to 32 µg/mL (≈ 1.69 to 108 µM) throughout.

For the compound `Cc1ncc([N+](=O)[O-])n1CCOc1no[n+]([O-])c1S(=O)(=O)c1ccccc1`, the MIC90 against Helicobacter pylori [22] fell in the range of 1 to 4 µg/mL (≈ 2.53 to 10.1 µM); against Helicobacter pylori [24], 0.5 to 32 µg/mL (≈ 1.26 to 80.9 µM); against Helicobacter pylori [23], 0.5 to 32 µg/mL (≈ 1.26 to 80.9 µM).

As to `Cc1ncc([N+](=O)[O-])n1CCN1C(=O)S/C(=C\c2ccc(Cl)cc2)C1=O`, the minimum inhibitory concentration (MIC) in the test on Proteus vulgaris was in the range of 31.2 to 500 µg/mL (≈ 79.6 to 1270 µM); against Salmonella typhimurium, 31.2 to 500 µg/mL (≈ 79.6 to 1270 µM); in the test on Klebsiella aerogenes [2], 31.2 to 500 µg/mL; against Pseudomonas aeruginosa [5], 31.2 to 500 µg/mL; in the test with Staphylococcus aureus [15], 31.2 to 500 µg/mL; in [16], 31.2 to 500 µg/mL (≈ 79.6 to 1270 µM). The MIC is 31.2 to 500 µg/mL in the test with Escherichia coli [6], 31.2 to 500 µg/mL (≈ 79.6 to 1270 µM) with Candida albicans and 31.2 to 500 µg/mL in the test on Enterococcus faecalis.

Take `Cc1ncc([N+](=O)[O-])n1CCNCc1no[n+]([O-])c1C(N)=O`: the MIC90 against Helicobacter pylori [22] and in the test on Helicobacter pylori [23] was 0.5 to 32 µg/mL (≈ 1.61 to 103 µM) throughout.

Turning to `Cn1c([N+](=O)[O-])cnc1-c1nnc(S)s1`, the zone of inhibition at 8 µg/disc with Helicobacter pylori [25] and in the test on Helicobacter pylori [26] was 20.9 to 50 mm in each case.

In the case of `CC(=O)Nc1nnc(Sc2c([N+](=O)[O-])ncn2C)s1`, the MIC against Bacillus subtilis [10] is above 64 µg/mL; against Klebsiella pneumoniae [12], above 64 µg/mL; against Escherichia coli [13] it was above 64 µg/mL; with Klebsiella aerogenes [17] it was above 64 µg/mL; in the test on Staphylococcus aureus [14], 4 to 32 µg/mL (≈ 13.3 to 107 µM).

Regarding `Cn1c([N+](=O)[O-])cnc1-c1nnc(Cl)s1`, the zone of inhibition at 8 µg/disc in the test with Helicobacter pylori [25] and in the test on Helicobacter pylori [26] was 20.9 to 50 mm each time.

For the compound `Cc1ccc(Oc2c(/C=N/NC(=O)Cn3c([N+](=O)[O-])cnc3C)c(C)nn2-c2ccc(C)cc2)cc1`, the MIC in the test on Pseudomonas aeruginosa [18], against Staphylococcus aureus [19], in the test on Escherichia coli [20] and with Bacillus subtilis [21] was 3.12 to 50 µg/mL (≈ 6.4 to 103 µM) each time.

With `Cc1ncc([N+](=O)[O-])n1CCN1C(=O)S/C(=C\c2cccs2)C1=O`, the MIC lay within 31.2 to 500 µg/mL (≈ 85.8 to 1370 µM) in the test on Proteus vulgaris; 31.2 to 500 µg/mL (≈ 85.8 to 1370 µM) against Salmonella typhimurium; 31.2 to 500 µg/mL in the test on Klebsiella aerogenes [2]; 31.2 to 500 µg/mL against Pseudomonas aeruginosa [5]; 31.2 to 500 µg/mL in the test with Staphylococcus aureus [15]; 31.2 to 500 µg/mL (≈ 85.8 to 1370 µM) in [16]. Besides, the MIC with Escherichia coli [6] lay in the range of 31.2 to 500 µg/mL; against Candida albicans, 31.2 to 500 µg/mL (≈ 85.8 to 1370 µM); in the test on Enterococcus faecalis, 31.2 to 500 µg/mL.

In the case of `Cc1nc([N+](=O)[O-])cn1Cc1nn(CNc2ccc(Br)cc2)c(=S)o1`, the MIC against Staphylococcus aureus [15] was in the range of 184 to 2890 µM; in the test with Streptococcus pyogenes it was 184 to 2890 µM (≈ 78.2 to 1230 µg/mL).

For the compound `Cc1nn(-c2ccccc2)c(Oc2ccc(Cl)cc2)c1/C=N/NC(=O)Cn1c([N+](=O)[O-])cnc1C`, the MIC against Pseudomonas aeruginosa [18], against Staphylococcus aureus [19], against Escherichia coli [20] and in the test on Bacillus subtilis [21] was 3.12 to 50 µg/mL (≈ 6.32 to 101 µM) throughout.
